In patent US20230203059A1, “MACROCYCLIC JAK INHIBITOR AND USES THEREOF” (Biopolar Hongye (Guangdong) Pharmaceutical Co. Ltd., priority 2020, published 2023):

Columns and labels:
Type in all cases: biochemical
JAK1 = JAK1 (Homo sapiens, UniProt P23458); experiment: JAK kinase activity, homogeneous time-resolved fluorescence (JAK1 reaction system); conditions: ATP 2 μM, JAK1 protein 0.2 ng/μL; read-out: JAK 1 activity
Summary of the method: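 HTRF assay: JAK1 (0.2 ng/μL) with 2 μM ATP and substrate in 50 mM Hepes pH 7.0, 5 mM MgCl2, 1 mM DTT, 1 h. Phospho-substrate antibody/XL-615 detection with EDTA; 665/615 nm ratio, excitation 320 nm. IC50 from Hill-type fit against no-enzyme and no-compound controls.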

JAK2 = JAK2 (Homo sapiens, UniProt O60674); experiment: JAK kinase activity, homogeneous time-resolved fluorescence (JAK2 reaction system); conditions: ATP 2 μM, JAK2 protein 0.01 ng/μL
Sequence of JAK2 (O60674 whole entry): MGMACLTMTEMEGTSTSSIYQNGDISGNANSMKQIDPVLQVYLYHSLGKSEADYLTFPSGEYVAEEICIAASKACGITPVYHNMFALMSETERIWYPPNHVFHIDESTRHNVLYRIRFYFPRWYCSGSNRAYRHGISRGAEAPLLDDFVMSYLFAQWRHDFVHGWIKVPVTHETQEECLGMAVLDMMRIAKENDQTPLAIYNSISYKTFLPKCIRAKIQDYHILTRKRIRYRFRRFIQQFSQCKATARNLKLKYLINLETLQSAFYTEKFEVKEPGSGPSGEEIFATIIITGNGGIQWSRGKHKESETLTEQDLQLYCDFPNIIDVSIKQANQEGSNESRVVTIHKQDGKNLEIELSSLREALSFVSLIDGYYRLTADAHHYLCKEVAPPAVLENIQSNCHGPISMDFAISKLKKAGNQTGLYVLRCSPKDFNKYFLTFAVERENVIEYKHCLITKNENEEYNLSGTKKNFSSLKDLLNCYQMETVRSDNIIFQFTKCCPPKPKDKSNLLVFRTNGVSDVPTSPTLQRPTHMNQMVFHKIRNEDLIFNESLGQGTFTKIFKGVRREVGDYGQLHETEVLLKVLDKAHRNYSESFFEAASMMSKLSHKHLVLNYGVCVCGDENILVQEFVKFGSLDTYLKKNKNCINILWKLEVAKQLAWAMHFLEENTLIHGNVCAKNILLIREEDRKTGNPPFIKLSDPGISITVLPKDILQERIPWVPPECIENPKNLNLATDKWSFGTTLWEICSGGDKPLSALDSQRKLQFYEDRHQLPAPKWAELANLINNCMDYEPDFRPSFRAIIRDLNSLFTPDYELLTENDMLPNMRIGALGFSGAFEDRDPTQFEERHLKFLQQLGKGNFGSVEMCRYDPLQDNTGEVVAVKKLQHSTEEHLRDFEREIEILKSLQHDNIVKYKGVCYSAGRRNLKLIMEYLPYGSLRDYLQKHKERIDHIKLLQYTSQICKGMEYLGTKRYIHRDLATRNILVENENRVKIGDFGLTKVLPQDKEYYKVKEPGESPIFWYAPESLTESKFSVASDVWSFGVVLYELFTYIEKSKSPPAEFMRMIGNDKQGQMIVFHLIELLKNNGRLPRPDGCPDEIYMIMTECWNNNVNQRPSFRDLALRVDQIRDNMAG
Summary of the method: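 IC50 derived by Hill-equation fit of the 665/615 nm time-resolved fluorescence ratio after EDTA-containing detection mix with anti-phosphosubstrate antibody. Preceding 1 h reaction contained 2 μM ATP, 0.01 ng/μL JAK2, substrate, 50 mM Hepes pH 7.0, 5 mM MgCl2, 1 mM DTT.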

JAK3 = target: T1, JAK3 (Homo sapiens, UniProt P52333); experiment: JAK kinase activity, homogeneous time-resolved fluorescence (JAK3 reaction system); conditions: ATP 2 μM, JAK3 protein 0.04 ng/μL; read-out: JAK 3 activity
T1 sequence (P52333 1-1124): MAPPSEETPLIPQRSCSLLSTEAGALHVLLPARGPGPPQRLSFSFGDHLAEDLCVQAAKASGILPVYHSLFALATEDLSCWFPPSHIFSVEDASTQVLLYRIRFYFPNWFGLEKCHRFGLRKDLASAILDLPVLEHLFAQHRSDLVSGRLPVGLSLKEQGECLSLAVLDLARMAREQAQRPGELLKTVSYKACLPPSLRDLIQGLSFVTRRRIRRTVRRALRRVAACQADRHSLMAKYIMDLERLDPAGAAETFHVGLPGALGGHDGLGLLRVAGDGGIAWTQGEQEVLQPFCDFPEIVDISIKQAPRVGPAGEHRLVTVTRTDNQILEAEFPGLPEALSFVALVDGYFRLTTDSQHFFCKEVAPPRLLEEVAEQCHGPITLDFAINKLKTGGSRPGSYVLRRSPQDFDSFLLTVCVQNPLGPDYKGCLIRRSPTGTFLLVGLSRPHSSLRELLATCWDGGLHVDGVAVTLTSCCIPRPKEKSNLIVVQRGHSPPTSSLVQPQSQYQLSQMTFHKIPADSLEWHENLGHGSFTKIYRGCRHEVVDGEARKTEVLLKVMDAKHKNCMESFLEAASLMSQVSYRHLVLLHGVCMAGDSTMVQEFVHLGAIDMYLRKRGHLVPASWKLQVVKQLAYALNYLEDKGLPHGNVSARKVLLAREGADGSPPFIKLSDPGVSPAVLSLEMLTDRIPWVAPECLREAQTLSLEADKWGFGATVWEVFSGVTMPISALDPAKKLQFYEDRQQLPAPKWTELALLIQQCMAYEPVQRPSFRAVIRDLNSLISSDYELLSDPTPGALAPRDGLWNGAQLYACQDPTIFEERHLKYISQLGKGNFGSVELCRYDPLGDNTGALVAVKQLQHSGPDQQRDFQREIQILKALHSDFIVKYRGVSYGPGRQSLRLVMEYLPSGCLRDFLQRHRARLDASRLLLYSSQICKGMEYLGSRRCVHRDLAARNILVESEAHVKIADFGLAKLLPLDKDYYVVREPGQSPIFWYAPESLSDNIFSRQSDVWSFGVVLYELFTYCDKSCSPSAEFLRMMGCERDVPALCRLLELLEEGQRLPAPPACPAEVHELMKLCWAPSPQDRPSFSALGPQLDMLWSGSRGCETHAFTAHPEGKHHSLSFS

TYK2 = TYK2 (Homo sapiens, UniProt P29597); experiment: JAK kinase activity, homogeneous time-resolved fluorescence (TYK2 reaction system); conditions: ATP 2 μM, TYK2 protein 0.2 ng/μL; read-out: TYK 2 activity
Sequence of TYK2 (P29597 whole entry): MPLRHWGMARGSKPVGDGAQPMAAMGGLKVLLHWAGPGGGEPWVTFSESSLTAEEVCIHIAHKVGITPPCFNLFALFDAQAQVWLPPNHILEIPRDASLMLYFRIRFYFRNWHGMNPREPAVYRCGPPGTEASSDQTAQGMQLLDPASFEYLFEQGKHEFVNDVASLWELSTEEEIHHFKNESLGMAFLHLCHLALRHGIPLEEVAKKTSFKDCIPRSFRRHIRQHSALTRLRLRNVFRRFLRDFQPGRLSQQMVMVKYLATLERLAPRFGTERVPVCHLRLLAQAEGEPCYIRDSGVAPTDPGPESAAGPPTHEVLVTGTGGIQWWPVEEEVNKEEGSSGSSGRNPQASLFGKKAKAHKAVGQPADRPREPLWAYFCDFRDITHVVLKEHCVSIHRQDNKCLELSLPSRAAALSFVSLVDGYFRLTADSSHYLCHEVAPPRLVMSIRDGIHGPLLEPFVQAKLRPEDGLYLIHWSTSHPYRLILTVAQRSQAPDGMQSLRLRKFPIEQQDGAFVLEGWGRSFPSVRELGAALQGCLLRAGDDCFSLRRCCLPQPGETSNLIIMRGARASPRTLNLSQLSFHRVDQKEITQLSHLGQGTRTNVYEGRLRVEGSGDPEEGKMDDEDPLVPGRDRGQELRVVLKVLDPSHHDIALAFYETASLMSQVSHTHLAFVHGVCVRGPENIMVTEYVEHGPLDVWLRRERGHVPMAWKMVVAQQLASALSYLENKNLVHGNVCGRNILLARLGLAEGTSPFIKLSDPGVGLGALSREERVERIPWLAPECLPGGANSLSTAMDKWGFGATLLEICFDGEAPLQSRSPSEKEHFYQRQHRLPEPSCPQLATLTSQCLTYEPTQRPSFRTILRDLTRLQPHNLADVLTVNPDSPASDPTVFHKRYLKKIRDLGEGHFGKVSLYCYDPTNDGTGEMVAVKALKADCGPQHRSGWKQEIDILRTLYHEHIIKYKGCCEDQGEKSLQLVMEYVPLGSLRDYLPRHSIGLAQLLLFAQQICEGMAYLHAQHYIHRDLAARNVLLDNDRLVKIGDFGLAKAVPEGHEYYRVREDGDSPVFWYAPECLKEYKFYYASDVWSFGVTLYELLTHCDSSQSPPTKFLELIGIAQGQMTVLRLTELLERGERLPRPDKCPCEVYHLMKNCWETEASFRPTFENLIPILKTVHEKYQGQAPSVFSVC
Summary of the method: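 Activity read as the 665 nm/615 nm ratio after adding EDTA-containing detection mix with anti-phospho-substrate antibody and XL-615. Beforehand, 0.2 ng/μL TYK2, 2 μM ATP, substrate and compound reacted 1 h in pH 7.0 Hepes buffer with MgCl2 and DTT. IC50 fitted with Hill-slope equation.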

Sequence of JAK1 (P23458 whole entry): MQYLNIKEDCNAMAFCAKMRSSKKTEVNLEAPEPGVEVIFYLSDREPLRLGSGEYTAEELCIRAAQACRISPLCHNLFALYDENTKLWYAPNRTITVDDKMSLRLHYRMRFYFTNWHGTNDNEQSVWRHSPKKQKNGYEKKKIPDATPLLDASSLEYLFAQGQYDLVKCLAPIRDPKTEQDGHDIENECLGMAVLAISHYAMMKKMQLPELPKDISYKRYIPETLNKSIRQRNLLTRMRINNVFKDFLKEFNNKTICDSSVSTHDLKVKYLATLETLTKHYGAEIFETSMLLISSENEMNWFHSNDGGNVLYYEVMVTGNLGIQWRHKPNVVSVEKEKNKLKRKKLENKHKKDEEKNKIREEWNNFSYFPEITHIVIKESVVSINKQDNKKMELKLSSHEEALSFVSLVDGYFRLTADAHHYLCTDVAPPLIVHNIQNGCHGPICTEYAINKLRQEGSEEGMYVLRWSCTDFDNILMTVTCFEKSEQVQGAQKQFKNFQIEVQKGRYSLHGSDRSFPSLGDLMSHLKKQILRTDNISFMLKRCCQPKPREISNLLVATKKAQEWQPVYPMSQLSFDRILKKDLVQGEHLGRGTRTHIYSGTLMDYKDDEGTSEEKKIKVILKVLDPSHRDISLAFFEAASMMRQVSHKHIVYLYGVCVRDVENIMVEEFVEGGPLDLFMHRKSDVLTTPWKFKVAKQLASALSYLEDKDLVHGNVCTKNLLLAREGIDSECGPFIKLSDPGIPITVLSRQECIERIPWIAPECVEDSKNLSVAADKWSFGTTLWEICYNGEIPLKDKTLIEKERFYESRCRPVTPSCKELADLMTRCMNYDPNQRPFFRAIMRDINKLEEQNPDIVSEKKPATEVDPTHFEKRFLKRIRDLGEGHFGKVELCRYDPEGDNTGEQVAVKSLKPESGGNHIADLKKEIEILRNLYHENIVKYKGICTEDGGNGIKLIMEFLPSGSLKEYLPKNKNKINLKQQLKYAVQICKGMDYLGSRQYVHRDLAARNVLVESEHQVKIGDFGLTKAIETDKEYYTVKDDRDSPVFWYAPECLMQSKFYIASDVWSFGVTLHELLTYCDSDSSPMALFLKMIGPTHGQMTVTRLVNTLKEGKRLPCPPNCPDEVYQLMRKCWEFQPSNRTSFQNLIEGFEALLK

Row | Structure (SMILES) | IC50 (JAK1) | IC50 (JAK2) | IC50 (JAK3) | IC50 (TYK2)
1 | CC1CCNC(=O)c2ccc(c([N+](=O)[O-])c2)-c2ccnc(n2)Nc2ccc(OCC3COC3)c(c2)COC1 (stereo not shown) [Example 174, 8-methyl-1^2-nitro-4^4-(oxetan-3-yl-methoxy)-6-oxa-3-diaza-2(4,2)-py-rimidina-1(1,4),4(1,3)-dibenzena-cyclododecaphan-12-one] | 1000 to 10000 nM | 1000 to 10000 nM | 1000 to 10000 nM | > 10000 nM
2 | O=C1NCCCCCc2cc(ccc2N2CCOCC2)Nc2nccc(n2)-c2ccc1cc2 [Example 32, 4^4-morpholin-3,11-diaza-2(4,2)-pyri-midina-1(1,4),4(1,3)-dibenzenacyclo-dodecaphan-11-one] | 101 to 1000 nM | < 10 nM | 11 to 100 nM | 101 to 1000 nM
3 | CC(C)COc1ccc2cc1COCCCCNC(=O)c1ccc(c(N)c1)-c1ccnc(n1)N2 [Example 116, 1^2-amino-4^4-isobutoxy-6-oxa-3,11-diaza-2(4,2)-pyrimidina-1(1,4),4(1,3)-dibenzenacyclododecaphan-12-one] | 101 to 1000 nM | 101 to 1000 nM | < 10 nM | 1000 to 10000 nM
4 | Nc1cc2ccc1-c1ccnc(n1)Nc1ccc(OCC3COC3)c(c1)COc1ccc(cc1)NC2=O [Example 214, 1-amino-4^4-(oxetan-3-ylmethoxy)-6-oxa-3,8-diaza-2(4,2)-pyrimidina-1,7(1,4)4(1,3)-tribenzenacyclonona-phane-9-one] | 1000 to 10000 nM | 101 to 1000 nM | 11 to 100 nM | 1000 to 10000 nM
5 | O=C1NCCCCOCc2cc(ccc2N2CCOCC2)Nc2nccc(n2)-c2ccc1cc2 [Example 1, 4^4-morpholin-6-oxa-3, 11-diaza-2 (4,2)-pyrimidina-1(1,4),4(1,3)-dibenzenacyclododecaphan-12-one] | 11 to 100 nM | 11 to 100 nM | < 10 nM | 101 to 1000 nM
6 | O=C1NCCCCCOCc2cc(ccc2N2CCOCC2)Nc2nccc(n2)-c2ccc1cc2[N+](=O)[O-] [Example 49, 1^2-nitro-4^4-morpholin-6-oxa-3,12-di-aza-2(4,2)-pyrimidina-1(1,4),4(1,3)-dibenzenacyclotridecaphan-13-one] | 1000 to 10000 nM | 101 to 1000 nM | 1000 to 10000 nM | 1000 to 10000 nM
7 | Cc1cc2ccc1-c1nc(ncc1C)Nc1ccc(Cl)c(c1)COCCCCNC2=O [Example 35, 1^2,2^5-dimethyl-4^4-chloro-6-oxa-3,11-diaza-2(4,2)-pyrimidina-1(1,4),4(1,3)-dibenzenacyclododecaphan-12-one] | > 10000 nM | > 10000 nM | 1000 to 10000 nM | > 10000 nM
8 | O=C1NCCCCOCc2cc(ccc2Br)Nc2nccc(n2)-c2ccc1cc2[N+](=O)[O-] [Example 89, 4^4-bromo-1^2-nitro-6-oxa-3,11-diaza-2(4,2)-pyrimidina-1(1,4),4(1,3)-di-benzenacyclododecaphan-12-one] | 1000 to 10000 nM | 1000 to 10000 nM | 1000 to 10000 nM | > 10000 nM
9 | O=C1NCCCCOCc2cc(ccc2N2CCOCC2)Nc2ncc(Cl)c(n2)-c2ccc1cc2 [Example 9, 2^5-chloro-4^4-morpholin-6-oxa-3,11-diaza-2(4,2)-pyrimidina-1(1,4),4(1,3)-dibenzenacyclododecaphan-12-one] | 11 to 100 nM | < 10 nM | < 10 nM | 11 to 100 nM
10 | O=C1NCCCCOCc2cc(ccc2OC2CCCOC2)Nc2nccc(n2)-c2ccc1cc2[N+](=O)[O-] (stereo not shown) [Example 113, 1^2-nitro-4^4-((tetrahydro-2H-pyran-3-yl)oxy)-6-oxa-3,11-diaza-2(4,2)-pyrimidina-1(1,4),4(1,3)-dibenzena-cyclododecaphan-12-one] | 1000 to 10000 nM | 1000 to 10000 nM | 101 to 1000 nM | > 10000 nM

Second part, the compound after the results:

Row | IC50 (JAK1) | IC50 (JAK2) | IC50 (JAK3) | IC50 (TYK2) | Structure (SMILES)
11 | 101 to 1000 nM | 101 to 1000 nM | 11 to 100 nM | 1000 to 10000 nM | O=C1NCCCCOCc2cccc(c2)Nc2nccc(n2)-c2ccc1cc2F [Example 12, 1^2-fluoro-6-oxa-3,11-diaza-2(4,2)-py-rimidina-1(1,4),4(1,3)-dibenzenacy-clododecaphan-12-one]
12 | 1000 to 10000 nM | 101 to 1000 nM | 11 to 100 nM | 1000 to 10000 nM | COc1cccc(F)c1COc1ccc2cc1COCCCCNC(=O)c1ccc(c(N)c1)-c1ccnc(n1)N2 [Example 172, 1^2-amino-4^4-((2-fluoro-6-methoxy-benzyl)oxy)-6-oxa-3,11-diaza-2(4,2)-pyrimidina-1(1,4),4(1,3)-di-benzenacyclododecaphan-12-one]
13 | 1000 to 10000 nM | 101 to 1000 nM | 11 to 100 nM | 1000 to 10000 nM | Nc1cc2ccc1-c1ccnc(n1)Nc1ccc(OCc3cccc4c3COC4)c(c1)COCCCCNC2=O [Example 160, 1^2-amino-4^4-((1,3-dihydroisobenzo-furan-4-yl)methoxy)-6-oxa-3,11-diaza-2(4,2)-pyrimidina-1(1,4),4(1,3)-dibenzenacyclododecaphan-12-one]
14 | 1000 to 10000 nM | 101 to 1000 nM | < 10 nM | 1000 to 10000 nM | COc1cc(F)cc(F)c1COc1ccc2cc1COCCCCNC(=O)c1ccc(c(N)c1)-c1ccnc(n1)N2 [Example 183, 1^2-amino-4^4-((2,4-difluoro-6-meth-oxybenzyl)oxy)-6-oxa-3,11-diaza-2(4,2)-pyrimidina-1(1,4),4(1,3)-di-benzenacyclododecaphan-12-one]
15 | 1000 to 10000 nM | 101 to 1000 nM | 11 to 100 nM | 1000 to 10000 nM | CN1CCN(c2ccc3cc2COCCCCNC(=O)c2ccc(c(N)c2)-c2ccnc(n2)N3)CC1 [Example 70, 1^2-amino-4^4-(4-methylpiperazin-1-yl)-6-oxa-3,11-diaza-2(4,2)-pyrimidi-na-1(1,4),4(1,3)-dibenzenacyclo-dodecaphan-12-one]
16 | 1000 to 10000 nM | 101 to 1000 nM | < 10 nM | 1000 to 10000 nM | CC1CCNC(=O)c2ccc(c(N)c2)-c2ccnc(n2)Nc2ccc(OCC3CCCOC3)c(c2)COC1 (stereo not shown) [Example 140, 1^2-amino-8-methyl-4^4-((tetrahydro-2H-pyran-3-yl)methoxy)-6-oxa-3,11-diaza-2(4,2)-pyrimidina-1(1,4),4(1,3)-dibenzenacyclododecaphan-12-one]
17 | 101 to 1000 nM | 101 to 1000 nM | 11 to 100 nM | > 10000 nM | CC(C)Oc1c(F)cc2cc1COCCCCNC(=O)c1ccc(c(N)c1)-c1ccnc(n1)N2 [Example 85, 1^2-amino-4^5-fluoro-4^4-isopropoxy-6-oxa-3,11-diaza-2(4,2)-pyrimidina-1(1,4),4(1,3)-dibenzenacyclododeca-phan-12-one]
18 | > 10000 nM | 1000 to 10000 nM | 101 to 1000 nM | > 10000 nM | O=C1NCCCCOCc2cc(ccc2OCC2CCC2)Nc2nccc(n2)-c2ccc1cc2[N+](=O)[O-] [Example 99, 4^4-(cyclobutylmethoxy)-1^2-nitro-6-oxa-3,11-diaza-2(4,2)-pyrimidina-1(1,4),4(1,3)-dibenzenacyclodode-caphan-12-one]
19 | 101 to 1000 nM | 101 to 1000 nM | 11 to 100 nM | 1000 to 10000 nM | O=C1NCCCCOCc2cc(ccc2N2CCCC2)Nc2nccc(n2)-c2ccc1cc2F [Example 34, 1^2-fluoro-4^4-(pyrrolidin-1-)-6-oxa-3,11-diaza-2(4,2)-pyrimidina-1(1,4),4(1,3)-dibenzenacyclododecaphan-12-one]
